Consider 7 molecules from patent US6579868B1, “Purine derivatives and adenosine A2 receptor antagonists serving as preventives/remedies for diabetes” (Eisai Co., Ltd., priority 1998, dated 2003).

Test [1] concerns the target T1, Human adenosine A2b receptor (Homo sapiens, UniProt P29275).
T1 construct: expressed in transfected cells; host or cells: CHOK1 cells
T1 sequence (P29275 1-332): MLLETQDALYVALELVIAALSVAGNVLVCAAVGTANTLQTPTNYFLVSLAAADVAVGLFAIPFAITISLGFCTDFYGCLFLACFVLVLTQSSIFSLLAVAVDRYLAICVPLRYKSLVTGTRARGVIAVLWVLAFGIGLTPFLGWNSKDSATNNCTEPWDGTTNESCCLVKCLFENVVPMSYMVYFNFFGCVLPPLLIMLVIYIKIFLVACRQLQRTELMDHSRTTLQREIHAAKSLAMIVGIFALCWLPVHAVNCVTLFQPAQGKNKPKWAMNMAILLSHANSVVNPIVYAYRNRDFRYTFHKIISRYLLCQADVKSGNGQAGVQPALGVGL
Put plainly: Suppression of NECA-stimulated cAMP production in adenosine A2b receptor expressed CHOK1 cells. In kind it is cell-based. The conditions noted are these: NECA 30 nM. Here is the method: Human adenosine A2b receptor cDNA was over-expressed in CHOK1 cells. […] Affinity of the test compound to the A2b receptor was evaluated in which the index used was the degree of suppression of the amount of cAMP produced by stimulation of NECA (30 nM) which was an adenosine agonist in the presence of the test compound. Thus, after washing with 2 ml/well of an incubation buffer (Krebs solution; pH7.4) twice, a pre-incubation was carried out at 0.5 ml/well for 30 minutes. […] After 15 minutes, the reaction was stopped by substituting 0.1N HCl (300 μl/well) for the reaction solution. Measurement of cAMP was carried out using an Amersham cAMP EIA Kit.
Calculation of the suppression rate of the test compound to the NECA-stimulated cAMP production was done by the following expression.
Inhibition Rate (%)=[1−{(cAMP amount in the presence of NECA and test compound-cAMP amount in the case of incubation buffer only)/(cAMP amount stimulated only by NECA-cAMP amount in the case of incubation buffer only)}]×100.
IC50 […]was calculated from the above.
(In general: Cyclic AMP is a second messenger, typically raised through Gs and lowered through Gi signalling.)

Test [2] concerns spontaneous diabetic mice (KK-A^y/Ta Jcl). Put plainly: Action to hyperglycemia of spontaneous diabetic mice (KK-A^y/Ta Jcl), single oral administration. In kind it is in vivo, mouse. Here is the method: Animals: Five male KK-A^y/Ta Jcl mice for each group (purchased from Nippon Clair)
Preparation and Administration of Test Compound: A test compound in a dose as shown in Table 2 was suspended in a 0.5% aqueous solution of methyl cellulose and was orally administered in a dose of 10 ml/kg.
Collection of Blood Samples and Determination of Blood Sugar: Blood was collected from tail vein immediately before administration of the test compound and also five hours after the administration and blood sugar was determined.
Method: Tail vein of a mouse was injured by a razor without an anesthetization to bleed slightly. The blood (15 μl) was collected and immediately mixed with 135 μl of a 0.6 M perchloric acid. Glucose in the supernatant obtained by a centrifugal separation (at 1500 g for 10 minutes at 4° C. using a cooling centrifuge GS-6KR of Beckmann) was determined by a Glucose CII Test Wako (Wako Pure Chemicals).
The result is shown in terms of “(% ratio of the blood sugar after 5 hours from the administration to the blood sugar before the administration)±(standard error)”. The data were subjected to a one-way layout analysis of variance and then subjected to a multiple comparison of a Dunnett type. The case where p<0.05 was judged to be that a significant difference was available.
Animals: Five male KK-A^y/Ta Jcl mice for each group (introduced from Nippon Clair)
Preparation and Administration of Test Compound: A test compound in a dose shown in Table 6 was suspended in a 0.5% aqueous solution of methyl cellulose and was orally administered in a dose of 10 ml/kg.
Method: Tail vein of mouse was injured by a razor without an anesthetization to bleed slightly. The blood (15 μl) was collected and immediately mixed with 135 μl of a 0.6 M perchloric acid. Glucose in the supernatant obtained by a centrifugal separation (at 1500 g for 10 minutes at 4° C. using a cooling centrifuge GS-6KR of Beckmann) was determined by a Glucose CII Test Wako (Wako Pure Chemicals).
The result is shown in terms of “(% ratio of the blood sugar after 5 hours from the administration to the blood sugar before the administration)±(standard error)”. The data were subjected to a one-way layout analysis of variance and then subjected to a multiple comparison of Dunnett type. The case where p<0.05 was judged that a significant difference was available.

A short description of test [3]: Glucose tolerance test (impaired glucose tolerance). The following applies: in vivo.
Another test concerns the target T2, adenosine A2a receptor (Homo sapiens, UniProt P29274).
T2 construct: purchased Receptor Biology, Inc
Description: Adenosine A2a receptor binding experiment (3H-CGS21680). The conditions noted are these: A2a receptor membrane specimen.

The target of test [4] is T3, Human adenosine A1 receptor (Homo sapiens, UniProt P30542).
T3 construct: expressed in transfected cells; host or cells: CHOK1 cells (membrane specimen)
T3 sequence (P30542 1-326): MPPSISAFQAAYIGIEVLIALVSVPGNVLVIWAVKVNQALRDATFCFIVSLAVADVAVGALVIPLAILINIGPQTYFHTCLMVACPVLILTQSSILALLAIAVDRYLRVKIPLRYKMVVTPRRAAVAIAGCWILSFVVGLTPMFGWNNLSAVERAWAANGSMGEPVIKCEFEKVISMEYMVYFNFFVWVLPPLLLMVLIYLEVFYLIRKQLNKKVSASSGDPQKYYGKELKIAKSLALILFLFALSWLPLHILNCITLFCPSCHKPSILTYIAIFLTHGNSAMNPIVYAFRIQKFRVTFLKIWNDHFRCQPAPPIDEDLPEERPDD
Description: Adenosine A1 receptor binding experiment (3H-CCPA). The following applies: human A1 receptor expressed in CHOK1 membranes. Here is the method:
Human adenosine A1 receptor cDNA was subjected to an over-expression in CHOK1 cells and its membrane specimen was suspended in an incubation buffer (20 mM HEPES, 10 mM MgCl2 and 100 mM NaCl; pH 7.4) to make the concentration 66.7 μg/ml. To 0.45 ml of this membrane specimen were added 0.025 ml of tritium-labeled chlorocyclopentyl adenosine (60 nM ^3H-CCPA; 30 Ci/mmol) and 0.025 ml of the compound to be tested. The solution of the compound to be tested was prepared in such a manner that, firstly, the compound was dissolved in DMSO to make 20 mM concentration and then successively diluted each 10-fold using an incubation buffer. The mixture was allowed to stand at 30° C. for 120 minutes, subjected to a quick suction on a glass fiber filter (GF/B; manufactured by Whatman) and immediately washed with 5 ml of ice-cooled 50mM Tris-HCl buffer twice. After that, the glass fiber filter was transferred to a vial bottle, a scintillator was added and the radioactivity on the filter was measured by a liquid scintillation counter. Calculation of the inhibition rate of the test compound to the receptor bond (^3H-CCPA) was carried out by the following expression and, based upon that, IC50 was calculated.
Inhibition Rate (%)=[1−{(Binding amount in the presence of drug-Non-specific binding amount)/(Total binding amount-Non-specific binding amount)}]×100
Total binding amount is a ^3H-CCPA binding radioactivity in the absence of the test compound.
Non-specific binding amount is a ^3H-CCPA binding radioactivity in the presence of 100 μM of RPIA.
Binding amount in the presence of drug is a ^3H-CCPA binding radioactivity in the presence of the test compound of various concentrations.
The inhibition constant (Ki value) in Table was calculated from Cheng-Prusoff's expression.

Structures can show the parent of a compound that is named as a salt.

T2 sequence (P29274 whole entry): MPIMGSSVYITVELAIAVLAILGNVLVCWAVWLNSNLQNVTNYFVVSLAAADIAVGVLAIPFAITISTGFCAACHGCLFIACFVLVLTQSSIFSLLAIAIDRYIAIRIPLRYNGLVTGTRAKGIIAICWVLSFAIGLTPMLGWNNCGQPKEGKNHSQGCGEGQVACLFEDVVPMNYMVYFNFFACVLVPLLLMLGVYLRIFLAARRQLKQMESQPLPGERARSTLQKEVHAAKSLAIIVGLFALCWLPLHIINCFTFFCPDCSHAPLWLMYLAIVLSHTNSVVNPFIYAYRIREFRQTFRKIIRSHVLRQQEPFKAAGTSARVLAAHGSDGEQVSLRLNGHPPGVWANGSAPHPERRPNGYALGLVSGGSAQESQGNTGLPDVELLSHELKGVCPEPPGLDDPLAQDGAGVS
Method for adenosine A2a receptor: A membrane specimen prepared by an over-expression of adenosine A2a receptor was purchased from Receptor Biology, Inc. and adenosine A2a receptor binding experiments were carried out using that. […] To 0.45 ml of this membrane specimen were added 0.025 ml of tritium-labeled ^3H-CGS21680 (500 nM; 30 Ci/mmol) and 0.025 ml of the test compound. The solution of the test compound was prepared in such a manner that, firstly, the compound was dissolved in DMSO to make 20 mM concentration and then successively diluted each 10-fold using an incubation buffer. […] After that, the glass fiber filter was transferred to a vial bottle, a scintillator was added and the radioactivity on the filter was measured by a liquid scintillation counter. Calculation of the inhibition rate of the test compound to the receptor bond (^3H-CGS21680) of A2a was carried out by the following expression and, based upon that, IC50 was calculated. […]
Total binding amount is a ^3H-CGS21680 binding radioactivity in the absence of the test compound.
Non-specific binding amount is a ^3H-CGS21680 binding radioactivity in the presence of 100 μM of RPIA.
Binding amount in the presence of drug is a ^3H-CGS21680 binding radioactivity in the presence of the test compound of various concentrations.

Take `Cn1c(-c2cccc(F)c2)nc2c(N)nc(C#CC3(O)CCCC3)nc21` [Compound B]: 70 nM corresponded to half-maximal inhibition in test [1] (IC50).
The same measure, in the same setting: the value for `CCCn1c(=O)c2c(nc(/C=C/c3ccc(OC)c(OC)c3)n2C)n(CCC)c1=O` [KF17837] was 1360 nM.
`CCn1c(-c2cccc(F)c2)nc2c(N)nc(C#CC3(O)CCC3)nc21` [Compound A]: the IC50 (commonly the midpoint of a concentration-inhibition curve) in test [1] stood at 28 nM. For the same molecule, in test [2] (Table 6-1, 10 mg/kg oral, administered in a form of sulfate, solvent group 72.4 ± 4.4), the “% ratio of the blood sugar after 5 hours from the administration to the blood sugar before the administration ± standard error” value turned out to be 47.8 ± 4.8%.
For `O=C(/C=C/c1c(-c2ccccc2)nn2ccccc12)N1CCCC[C@@H]1CCO` [FK453, reference compound], in test [3], the “glucose tolerance improving action in glucose tolerance test (in words)” value is given as “no glucose tolerance improving action was noted”. Besides, in test [2] (even at the dose of 100 mg/kg), the “hypoglycemic action in the present diabetic models (in words)” value is “no hypoglycemic action was noted”.
`CCn1c(-c2cccc(F)c2)nc2c(N)nc(C#CC3(O)CCC3)nc21` [drawing 259]: the Ki – broadly, the equilibrium dissociation constant of an inhibitor or competing ligand from its target – at adenosine A2a receptor was found to be 2 nM; in test [4], 24 nM.
`Fc1cccc(-c2nc3cccnc3n2-c2ccncc2)c1` [Compound C, 2-(3-Fluorophenyl)-(4-pyridyl)-3H-imidazo[4,5-b]pyridine Hydrochloride, reference compound] showed an IC50 in test [1] of 100 nM. Besides, the “% ratio of the blood sugar after 5 hours from the administration to the blood sugar before the administration ± standard error” value in test [2] (Table 6-2, 30 mg/kg oral, solvent group 69.8 ± 2.3) was 48.5 ± 3.4%.
With `Fc1cccc(-c2nc3cccnc3n2-c2ccncc2)c1` [drawing 261], the Ki at adenosine A2a receptor came out at 750 nM; in test [4], 54 nM.
